# What was measured:
# ALPP [1] = assay: ALPP expression in cancer cell lines after drug treatment (immunoblot, immunofluorescence, flow cytometry, qPCR, surface proteomics); type: cell-based, human; details: for ALPP expression after PI3K/AKT or MEK/ERK inhibition: HCC827 and H1650 (FIG. 8D: HCC827 and PC9); for ALPP expression after drug washout and re-treatment: 48 hours treatment, 48 hours without inhibitor; for ALPP and percentage of ALPP+ cells over time: one to four days, 30 nM; for ALPP induction by other EGFR inhibitors (immunoblots): EGFR-mutant H1650 and HCC827; for fold increase in ALPP expression: EGFR TKI treatment (FIG. 7D, FIG. 15B: 30 nM, 48 hours)
# Excerpt: ALPP and ALPPL2 expression analysis in whole cell extracts and in the surfaceome compartment was done by mass spectrometry as previously described^19-23. Each dataset was normalized to the total number of spectral counts for each compartment^24.
# Images were acquired in z-series on a spinning-disk confocal system.
# Probe for ALPP was purchased from Thermo Fisher Scientific (Hs03046558_s1).
# ALPP [2] = details: PC9 xenograft tumors; GSE161584; cited from earlier work
# [3] = tested on: AKT (Ser473) and ERK (T202/Y204) phosphorylation; assay: Immunoblots for AKT and ERK phosphorylation in LUAD cells; type: cell-based, human; details: H2291 and H1650; EGF 10 or 20 ng/mL, gefitinib 0.5 or 1 μM
# ALPP promoter = assay: ChIP-qPCR for FoxO3a binding to the promoter region of ALPP gene; type: cell-based, human; details: H1650 and HCC827; 1 μM, 6 hours
# Excerpt: Subsequently, the DNA-protein complexes were enriched with Protein A/G magnetic Beads and DNA was recovered by the DNA Clean-up column.
# ALPP [4] = assay: IHC for ALPP in tumor and normal tissues of gefitinib-treated H1650 tumor-bearing mice; type: in vivo, BALB/c nude mice; details: 50 mg/kg daily for 10 days
# Method: IHC staining was performed as previously described 25.
# FoxO3a = FoxO3a phosphorylation, localisation and transcription in LUAD cells
# HCC827 and PC9 cells [5] = assay: Flow cytometry-based cell cycle analysis; parameters: species or system human; details: 30 nM
# HCC827 and PC9 cells [6] = details: 100 nM
# ALPP [7] = details: cited from earlier work
# [8] = EGFR mut H1650, 24- and 48-hour treatment
compound,measurement,setting,value
CCn1cc(C(=O)O)c(=O)c2c(N)c(F)c(NC3CCCCC3)cc21 [AS1842856],ALPP protein expression after FoxO inhibition,"ALPP [1]; LUAD cells (HCC827 and PC9), 48 hours",diminished ALPP protein expression
same,effect on gefitinib-mediated ALPP upregulation,"ALPP [1]; LUAD cells (HCC827 and PC9), with gefitinib, 48 hours",blunted gefitinib-mediated ALPP upregulation
Cc1cc(C(=O)NOCCO)c(Nc2ccc(I)cc2F)n(C)c1=O [AZD8330],ALPP expression after PI3K/AKT or MEK/ERK inhibition,"ALPP [1]; 100 nM, 48 hours",drastic induction of ALPP expression
Nc1cc(C(F)(F)F)c(-c2cc(N3CCOCC3)nc(N3CCOCC3)n2)cn1 [NVP-BKM120],ALPP expression after PI3K/AKT or MEK/ERK inhibition,"ALPP [1]; 100 nM, 48 hours",drastic induction of ALPP expression
O=C(Nc1ccc2[nH]nc(-c3ccncc3)c2c1)[C@@H]1CCN(CC(=O)N2CCN(c3ccc(-c4ncccn4)cc3)CC2)C1 [SCH772984],ALPP expression after PI3K/AKT or MEK/ERK inhibition,"ALPP [1]; 100 nM, 48 hours",drastic induction of ALPP expression
C#Cc1cccc(Nc2ncnc3cc(OCCOC)c(OCCOC)cc23)c1 [erlotinib],ALPP mRNA expression in xenograft tumors,ALPP [2],increased ALPP mRNA expression in erlotinib-responding tumors compared with treatment naïve tumors
COc1cc2ncnc(Nc3ccc(F)c(Cl)c3)c2cc1OCCCN1CCOCC1 [gefitinib],ALPP expression (immunoblots),ALPP [1]; [8],ALPP upregulation
same,"surface ALPP expression (mass spectrometry, immunofluorescence)","ALPP [1]; EGFR mutant H1650 and PC9, 24- and 48-hour treatment",pronounced upregulation of surface ALPP expression
same,ALPP expression (immunoblots),"ALPP [1]; EGFR wild-type, KRAS mutant H2291 and H1838","increased ALPP expression, although to a lesser extent"
same,surface ALPP by flow cytometry in gefitinib-resistant cells,"ALPP [1]; GR HCC827 and PC9, 100 nM",majority of gefitinib-resistant cells expressed high level of ALPP
same,ALPP expression in gefitinib-resistant (GR) cells,"ALPP [1]; GR HCC827 and PC9, 100 nM, 48 hours",further enhanced ALPP upregulation
same,ALPP upregulation in ALPP non-expressing cell lines,"ALPP [1]; H1395, H1944, HCC2279, 1 μM, 48 hours",did not upregulate ALPP
same,ALPP mRNA levels,ALPP [1]; H1650 and HCC827,concomitant increases in ALPP mRNA levels
same,ALPP levels in ALPP-positive LUAD cell lines,"ALPP [1]; H2291, H1650, H1838, H1651, 1 μM, 48 hours",exhibited elevated ALPP levels
same,ALPP expression after drug washout and re-treatment,ALPP [1]; HCC827 and PC9,markedly reduced in the absence of EGFR inhibitors and was restored with the addition of inhibitors
same,ALPP and percentage of ALPP+ cells over time,ALPP [1]; HCC827 and PC9,gradual and sustained increase of ALPP and percentage of ALPP^+ cells
same,ALPP expression (immunoblots),"ALPP [1]; TNBC cell lines BT20 and HCC1937, 1 μM",increased ALPP expression
same,AKT and ERK phosphorylation,[3],repressed phosphorylation of AKT and ERK
same,FoxO3a binding to ALPP promoter (ChIP-qPCR),ALPP promoter,induced FoxO3a binding to ALPP promoter sequences
same,tumoral ALPP surface expression (IHC),ALPP [4],pronounced increases in tumoral ALPP surface expression
same,ALPP protein staining in other tissues (IHC),ALPP [4]; normal tissues,negative or showed no appreciable difference compared to the vehicle control
same,FoxO3a cytosol/nucleus distribution,FoxO3a; H1650 and HCC827,reduced cytosolic FoxO3a and promoted its nuclear translocation
same,"phosphorylation of FoxO3a (Ser294, Ser425)","FoxO3a; H1650 and HCC827, 30 nM, 6 hours",repressed phosphorylation of FoxO3a at Ser294 and Ser425 residues
same,transcription of FOXO3A,FoxO3a; LUAD cells,not affected
CS(=O)(=O)CCNCc1ccc(-c2ccc3ncnc(Nc4ccc(OCc5cccc(F)c5)c(Cl)c4)c3c2)o1 [lapatinib],ALPP induction by other EGFR inhibitors (immunoblots),ALPP [1],yielded similar results
C=CC(=O)Nc1cc(Nc2nccc(-c3cn(C)c4ccccc34)n2)c(OC)cc1N(C)CCN(C)C [osimertinib],ALPP induction by other EGFR inhibitors (immunoblots),ALPP [1],yielded similar results
same,ALPP expression (immunoblots),"ALPP [1]; HCC827 and PC9, 30 nM (FIG. 8K)",increased ALPP expression
same,ALPP expression after drug washout and re-treatment,ALPP [1]; HCC827 and PC9,markedly reduced in the absence of EGFR inhibitors and was restored with the addition of inhibitors
same,ALPP and percentage of ALPP+ cells over time,ALPP [1]; HCC827 and PC9,gradual and sustained increase of ALPP and percentage of ALPP^+ cells
same,fold increase in ALPP expression,ALPP [1]; HCC827 cells,~60 fold
same,fold increase in ALPP expression,ALPP [1]; PC9 cells,~110 fold
same,cell cycle arrest in G0/G1,HCC827 and PC9 cells [5],statistically significantly increased cell cycle arrest in G0/G1
same,emergence of drug-resistant clones under continuous TKI treatment,HCC827 and PC9 cells [6],led to the emergence of drug-resistant clones
same,Ingenuity Pathway Analysis of upstream regulators,"ALPP [7]; 4 LUAD cell lines, RNAseq data GSE193258","concordant activation of FoxO3a, but not FoxO1"
same,"ALPP gene expression, single cell transcriptomics","ALPP [7]; PC9, 0, 3, 7, 14 days, GSE150949",progressive increase in ALPP gene expression
same,LUAD cells expressing ALPP,"ALPP [7]; PC9, day 14, GSE150949",~50%
same,phosphorylation of EGFR and FoxO3a,"FoxO3a; HCC827 and PC9, 30 nM",suppressed the phosphorylation of EGFR and FoxO3a
"EGF: epidermal growth factor, the endogenous ligand of EGFR",ALPP expression (immunoblots),ALPP [1]; [8],reduced ALPP expression
same,ALPP expression in EGF-containing growth medium,"ALPP [1]; H1650 and H2291, EGF 10 or 20 ng/mL, 24 and 48 hours",drastically reduced
same,AKT and ERK phosphorylation,[3],"induced AKT phosphorylation at serine 473 (Ser473), and ERK phosphorylation at threonine 202 (T202) and tyrosine 204 (Y204) residues"
